The values that follow come from US10857155B2, “Compounds targeting proteins, compositions, methods, and uses thereof” (BioTheryX, Inc., priority 2017, dated 2020).

What all share (type): cell-based
The test system of one assay is Molm-13 cells. Nature of the assay: Cell viability assay (CellTiter-Glo), Molm-13 cells. Particulars: Homo sapiens, 72 h, 3 days. The essentials: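 Molm-13 cells in RPMI-1640/10% FBS, 20,000 per well, exposed to compound or DMSO for 3 days at 37° C, 5% CO2. Viable cells quantified by CellTiter-Glo luminescence after 10 min shaking.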
In general terms: ATP-based viability assays read luminescence as a measure of living cells.

The next assay relates to IL-1β. Nature of the assay: IL-1 beta in LPS-induced PBMCs / CD14+ monocytes, Meso Scale assay. Particulars: 0.1 μM. An outline of the steps:
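Thawed PBMCs or CD14+ mobilized peripheral blood monocytes were plated at 200,000 cells per well, pretreated with compound or DMSO for 1 h, then stimulated with 100 ng/mL LPS for 18-24 h. Supernatant IL-1 beta was measured by Meso Scale assay, with activity expressed relative to the DMSO control.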

The subject of a further assay is TNF-α. Nature of the assay: TNF-alpha in LPS-induced PBMCs / CD14+ monocytes, Meso Scale assay. Particulars: 0.1 μM. An outline of the steps: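 Frozen human PBMCs or CD14+ mobilized peripheral blood monocytes pretreated with compound 1 h, then stimulated with 100 ng/mL LPS for 18-24 h. Supernatant TNF-alpha measured by Meso Scale immunoassay; activity expressed relative to LPS-induced DMSO control.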

The next assay concerns H1048 cells. Nature of the assay: Cell viability assay (CellTiter-Glo), H1048 cells. Particulars: Homo sapiens, NCI-H1048, 72 h, 3 days; for viability at 1 µM: H1048, 1 μM; for viability at 10 µM: H1048, 10 μM. An outline of the steps: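 H1048 cells in supplemented DMEM:F12 with 5% FBS, 20,000 cells/well, exposed to compound or DMSO for 3 days at 37 °C, 5% CO2. Viability read by CellTiter-Glo luminescence after 10 min shaking.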

A further assay deals with IL-6. In words: IL-6 in LPS-induced PBMCs / CD14+ monocytes, Meso Scale assay. Particulars: 0.1 μM. An outline of the steps: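 Frozen PBMCs or CD14+ monocytes were plated at 200,000 cells/well and pretreated 1 h with compound or DMSO. They were then stimulated with 100 ng/mL LPS for 18–24 h, and supernatant IL-6 was measured by Meso Scale assay. Activity is expressed relative to the LPS-induced DMSO control.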

In the next assay the target is T1, GSPT1 (Homo sapiens, UniProt P15170).
T1 construct: Whole cell extract was prepared with RIPA buffer according to manufacturer's protocol; endogenous in cells; host or cells: Jurkat cells
T1 sequence (P15170 whole entry): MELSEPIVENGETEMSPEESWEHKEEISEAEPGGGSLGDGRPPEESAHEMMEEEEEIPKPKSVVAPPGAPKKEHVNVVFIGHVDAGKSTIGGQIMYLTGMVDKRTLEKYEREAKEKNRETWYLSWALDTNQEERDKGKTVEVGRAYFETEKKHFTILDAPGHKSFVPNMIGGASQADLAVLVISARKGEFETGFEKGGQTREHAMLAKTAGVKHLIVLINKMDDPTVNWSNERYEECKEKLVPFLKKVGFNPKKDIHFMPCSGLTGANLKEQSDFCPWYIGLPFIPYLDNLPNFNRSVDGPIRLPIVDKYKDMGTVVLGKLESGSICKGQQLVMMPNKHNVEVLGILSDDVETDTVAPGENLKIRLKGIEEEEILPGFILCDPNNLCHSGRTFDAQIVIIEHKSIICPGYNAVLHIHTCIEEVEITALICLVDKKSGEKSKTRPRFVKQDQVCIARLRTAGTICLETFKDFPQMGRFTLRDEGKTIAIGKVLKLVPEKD
Nature of the assay: Western blot analysis of GSPT1 protein levels in Jurkat cells. Particulars: DMSO = 100.00; for GSPT1 protein level (% of DMSO control) at 0.1 µM: 100 nM compound; for GSPT1 protein level (% of DMSO control) at 1 µM: 1 uM compound. An outline of the steps: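 Jurkat cells (~10^6 cells/mL, RPMI 1640 + 10% FBS) treated with compound or DMSO for 4 h or 6–8 h; RIPA whole-cell lysates run on 4–12% SDS-PAGE and immunoblotted with HRP or IRDye secondaries (Odyssey imaging). Activity read as decrease in GSPT1 protein versus DMSO.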
On the technique in general: In western blotting, separated proteins are transferred to a membrane and probed.

The next assay has as its system IL-2. Nature of the assay: IL-2 in PBMCs on anti-human CD3 (OKT3) coated plates, Mesoscale analysis. Particulars: PBMC, 24 h, 0.1 μM, relative to DMSO control, read-out: Fold Change IL-2. An outline of the steps:
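PBMCs (3-4 million cells/mL) with compounds were stimulated on plates precoated with 1 μg/mL anti-human CD3 (OKT3) for 24 h. Supernatant IL-2 was measured by Mesoscale, activity expressed as fold difference from DMSO control.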

As a reminder, the viability is a read-out of living cells in per cent, often relative to untreated cells. Usually inhibition stands for the change of the read-out against control, counted positive when it falls. High values mean a response far below the control, low ones a response near the control. Turning to `Cc1ccc(NC(=S)NCc2ccc3c(c2)CN([C@H]2CCCC(=O)NC2=O)C3=O)cc1Cl` [Compound 26, (S)-1-(3-chloro-4-methylphenyl)-3-((2-(2,7-dioxoazepan-3-yl)-1-oxoisoindolin-5-yl)methyl)thiourea], the viability at 1 µM with Molm-13 cells (MOLM-13, 1 μM) turned out to be 79%; in the assay on H1048 cells, 46.4%. Besides, the inhibition at 0.1 µM was determined as 1% in the assay with IL-1β, 3% in the assay on TNF-α and 0% in the assay on IL-6. Further, the viability at 10 µM with H1048 cells was determined as 4.54%. Also, on GSPT1, the GSPT1 protein level (% of DMSO control) at 0.1 µM worked out at 61.6%. In addition, at GSPT1, the GSPT1 protein level (% of DMSO control) at 1 µM was found to be 20.8%. Further, the fold induction at 0.1 µM in the assay with IL-2 came out at 0.8.

As to `Cc1ccc(NC(=O)NCc2ccc3c(c2)C(=O)N([C@H]2CCCC(=O)NC2=O)C3=O)cc1Cl` [Compound 27, (S)-1-(3-chloro-4-methylphenyl)-3-((2-(2,7-dioxoazepan-3-yl)-1,3-dioxoisoindolin-5-yl)methyl)urea], the viability at 10 µM was found to be 89% in the assay with Molm-13 cells (MOLM-13, 10 μM) and 28.2% in the assay with H1048 cells. The inhibition at 0.1 µM in the assay with IL-1β amounted to 9%; in the assay on TNF-α it was 19%; with IL-6, 0%. Besides, the viability at 1 µM with H1048 cells came out at 101%. The GSPT1 protein level (% of DMSO control) at 0.1 µM on GSPT1 was found to be 51.4%. Also, the GSPT1 protein level (% of DMSO control) at 1 µM at GSPT1 is 23.8%. Besides, the fold induction at 0.1 µM in the assay on IL-2 was found to be 1.1.
